Test results as given in ChEMBL document CHEMBL1201862, “PubChem BioAssay data set” (2004).
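Tested at 5 concentrations; 48 h exposure; 96-well plates; endpoints linearly interpolated, else capped at highest concentration. GI50 is the concentration that inhibits growth by half.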 Calls of active or inactive are those of the source. Cut-off read from the data, not from the text of the source: active = GI50 up to about 1.1 µM and inactive = higher.

Legend:
Experiment in all cases: growth of human tumour cells (NCI), 48 h
786-0 = tested on: 786-0
A498 = tested on: A498
A549 = tested on: A549
CCRF-CEM = tested on: CCRF-CEM
DU-145 = tested on: DU-145
HCC 2998 = tested on: HCC 2998
HCT-15 = tested on: HCT-15
MCF7 = tested on: MCF7
MDA-MB-231 = tested on: MDA-MB-231
MDA-MB-435 = tested on: MDA-MB-435
NCI-H226 = tested on: NCI-H226
OVCAR-3 = tested on: OVCAR-3
OVCAR-4 = tested on: OVCAR-4
SF-268 = tested on: SF-268
SF-295 = tested on: SF-295
SK-MEL-2 = tested on: SK-MEL-2
SK-MEL-5 = tested on: SK-MEL-5
U-251 = tested on: U-251
UACC-257 = tested on: UACC-257
UACC-62 = tested on: UACC-62

Measured: GI50

Oc1c(C(Nc2ccccn2)c2ccccc2)ccc2cccnc12 (stereo not given)
inactive: 786-0 2.76 µM | A498 10.2 µM | A549 4.35 µM | CCRF-CEM 1.37 µM | DU-145 4.05 µM | HCC 2998 49.9 µM | MCF7 4.04 µM | MDA-MB-231 3.08 µM | MDA-MB-435 5.73 µM | NCI-H226 2.59 µM | OVCAR-3 2.51 µM | OVCAR-4 3.5 µM | SF-268 2.94 µM | SF-295 3.55 µM | SK-MEL-2 3.55 µM | SK-MEL-5 3.66 µM | U-251 2.72 µM | UACC-257 7.8 µM | UACC-62 4.33 µM
1.98 µM: HCT-15

Cc1sc2nc3n(c(=O)c2c1C)N=CN(c1ccc(F)cc1)C3
inactive: 786-0 19.5 µM | A498 26.9 µM | A549 43.9 µM | CCRF-CEM > 100 µM | DU-145 > 100 µM | HCC 2998 59.6 µM | MCF7 > 100 µM | MDA-MB-231 59 µM | MDA-MB-435 > 100 µM | NCI-H226 > 100 µM | OVCAR-3 > 100 µM | OVCAR-4 18.7 µM | SF-268 81.7 µM | SF-295 72.9 µM | SK-MEL-2 > 100 µM | SK-MEL-5 > 100 µM | U-251 50.1 µM | UACC-257 > 100 µM | UACC-62 > 100 µM
> 100 µM: HCT-15

CCOC(=O)c1c(N/C(S)=N/c2ccccc2)sc2c1CCOC2
46.7 µM: HCT-15
inactive: 786-0 > 100 µM | A498 37 µM | A549 53.1 µM | CCRF-CEM 63.7 µM | DU-145 80.5 µM | HCC 2998 70.1 µM | MCF7 33 µM | MDA-MB-231 > 100 µM | MDA-MB-435 56.6 µM | NCI-H226 > 100 µM | OVCAR-3 87.9 µM | OVCAR-4 61.5 µM | SF-268 64.1 µM | SF-295 46.8 µM | SK-MEL-2 74.6 µM | SK-MEL-5 53.1 µM | U-251 > 100 µM | UACC-257 64 µM | UACC-62 28.9 µM

CCCCCC(O)C1C(=O)OC(C)C(O)/C=C/C=C/C=C/C=C\C=C(\C)C(O)CC(O)CC(O)CC(O)CC(O)CC(O)CC1O (stereo not given)
> 50 µM: HCT-15
inactive: 786-0 > 50 µM | A498 > 50 µM | A549 > 50 µM | CCRF-CEM > 50 µM | DU-145 > 50 µM | HCC 2998 > 50 µM | MCF7 > 50 µM | MDA-MB-231 > 50 µM | MDA-MB-435 > 50 µM | NCI-H226 > 50 µM | OVCAR-3 > 50 µM | OVCAR-4 11.1 µM | SF-268 > 50 µM | SF-295 > 50 µM | SK-MEL-2 > 50 µM | SK-MEL-5 > 50 µM | U-251 > 50 µM | UACC-257 34.6 µM | UACC-62 > 50 µM

O=Cc1ccc(-c2cccc([N+](=O)[O-])c2)s1
> 100 µM: HCT-15
inactive: 786-0 80 µM | A498 16.9 µM | A549 > 100 µM | CCRF-CEM 96.2 µM | DU-145 61 µM | HCC 2998 > 100 µM | MCF7 > 100 µM | MDA-MB-231 > 100 µM | MDA-MB-435 > 100 µM | NCI-H226 67.5 µM | OVCAR-3 > 100 µM | OVCAR-4 > 100 µM | SF-268 > 100 µM | SF-295 > 100 µM | SK-MEL-2 > 100 µM | SK-MEL-5 > 100 µM | U-251 45.4 µM | UACC-257 > 100 µM | UACC-62 > 100 µM
